From PubChem BioAssay (NCI)
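Method: 48-hour compound exposure of cells in 96-well plates, five concentrations, linear interpolation of endpoints. The concentration for full growth arrest is given as TGI.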

Tests used:
Assay in all cases: NCI-60 cell line screen, 48 h
[1] = test system: 786-0 renal
[2] = test system: COLO 205 colon
[3] = test system: HOP-62 NSCLC
[4] = test system: K-562 leukemia
[5] = test system: NCI-H226 lung
[6] = test system: NCI-H522 lung
[7] = test system: OVCAR-3 ovarian
[8] = test system: OVCAR-5 ovarian
[9] = test system: SW-620 colon
[10] = test system: U251 CNS

O=C(NNC(=S)Nc1ccc(Cl)cc1)C12CC3CC(CC(C3)C1)C2
TGI [1]: > 58 µM | TGI [2]: 18.3 µM | TGI [3]: 29.7 µM | TGI [4]: > 37.9 µM | TGI [5]: 31.6 µM | TGI [6]: 20.2 µM | TGI [7]: 10.6 µM | TGI [8]: 81.1 µM | TGI [9]: 35.6 µM | TGI [10]: 24.8 µM

O=C1C=CC(=O)c2c(O)c(NCCO)c(Cl)c(O)c21
TGI [1]: > 10 µM | TGI [2]: 3.4 µM | TGI [3]: > 8.35 µM | TGI [4]: 8.23 µM | TGI [5]: > 10 µM | TGI [6]: > 10 µM | TGI [7]: 7.41 µM | TGI [8]: > 5.87 µM | TGI [9]: 5.11 µM | TGI [10]: > 10 µM

O=C(CCc1ccc(O)c(O)c1)NCCc1ccccc1
TGI [1]: > 100 µM | TGI [2]: > 100 µM | TGI [3]: > 100 µM | TGI [4]: 49.6 µM | TGI [5]: > 100 µM | TGI [6]: 43.4 µM | TGI [7]: > 100 µM | TGI [8]: > 100 µM | TGI [9]: > 100 µM | TGI [10]: > 100 µM

Cc1c2oc3c(C)cnc(C(=O)NC4C(=O)NC(C(C)C)C(=O)N5CCCC5C(=O)N(C)CC(=O)N(C)C(C(C)C)C(=O)OC4C)c3nc-2c(C(=O)NC2C(=O)NC(C(C)C)C(=O)N3CCCC3C(=O)N(C)CC(=O)N(C)C(C(C)C)C(=O)OC2C)c(N)c1=O (stereo not given)
TGI [1]: > 75 µM | TGI [2]: 14.2 µM | TGI [3]: > 57.7 µM | TGI [4]: 2.36 µM | TGI [5]: 23.8 µM | TGI [6]: 18 µM | TGI [7]: > 58.2 µM | TGI [8]: > 75 µM | TGI [9]: > 53.3 µM | TGI [10]: > 38 µM

Cc1n[nH]c(=O)n1Nc1ccccc1
TGI [1]: > 100 µM | TGI [2]: > 100 µM | TGI [3]: > 100 µM | TGI [4]: > 100 µM | TGI [5]: > 100 µM | TGI [6]: > 100 µM | TGI [7]: > 100 µM | TGI [8]: > 100 µM | TGI [9]: > 100 µM | TGI [10]: > 100 µM

C=CCOC1CC(n2cnc3c(N)ncnc32)OC1CO (stereo not given)
TGI [1]: > 100 µM | TGI [2]: > 100 µM | TGI [3]: > 100 µM | TGI [4]: > 100 µM | TGI [5]: > 100 µM | TGI [6]: > 100 µM | TGI [7]: > 100 µM | TGI [8]: > 100 µM | TGI [9]: > 100 µM | TGI [10]: > 100 µM

O=C(CC(Cc1ccccc1)c1ccc(Oc2ccccc2)cc1)Nc1cccc(Cl)c1 (stereo not given)
TGI [1]: > 100 µM | TGI [2]: 19.3 µM | TGI [3]: > 100 µM | TGI [4]: > 100 µM | TGI [5]: 73.2 µM | TGI [6]: 26.5 µM | TGI [7]: 49.6 µM | TGI [8]: > 100 µM | TGI [9]: > 100 µM | TGI [10]: > 100 µM

CC1(c2nc3ccccc3[nH]2)CCC(C#N)C(C)(C)O1 (stereo not given)
TGI [1]: > 100 µM | TGI [2]: > 100 µM | TGI [3]: > 100 µM | TGI [4]: > 100 µM | TGI [5]: > 100 µM | TGI [6]: > 100 µM | TGI [7]: > 100 µM | TGI [8]: > 100 µM | TGI [9]: > 100 µM | TGI [10]: > 100 µM
